Experimental data taken from US20200323954A1, “METHODS AND COMPOSITIONS FOR REDUCING GUT ISCHEMIA/REPERFUSION-INDUCED INJURY” (PanTheryx, Inc., priority 2019, published 2020).
Entries after “also recorded” stand apart in the source; their conditions may differ. Marks after values point to notes of the source that are not given here.

How the values were obtained:
lung tissue = assay: Gut I/R model, lung tissue
AGS cells [1] = assay: Cell viability (MTT) assay after hypoxia/reperfusion (H/R); type: cell-based, human; conditions: for cell viability in the MTT assay: 4 h hypoxia + 24 h reperfusion
Description: (§1) Hypoxia (Ischemia)/Normoxia (Reperfusion) (H/R) protocols for in vitro studies: For all experiments AGS, Caco-2 and RIE1 cells were set up in plates as described in specific methods. Cells were used at 70-80% confluence for cell injury/death assessment and as confluent monolayers for permeability studies. To induce “ischemia”, cells were placed in a hypoxic incubator (2% 02) for specified time and to mimic reperfusion, cells were placed back in a normoxic (21% 02) incubator for specified time. All treatments were duplicated in a second set of identical plates under normoxic conditions throughout the same test period as controls. To determine optimum conditions for the in vitro studies, pilot studies were performed.
Cell viability (MTT) assay: Cell viability following H/R was assessed using an MTT assay (3-(4,5-dimethylthiazol-2-yl)-2,5-diphenyltetrazolium bromide) according to Marshall et al., Growth Regul. 1995; 5(2):69-84. The principal of the assay is that viable cells contain NAD(P)H-dependent oxidoreductase enzymes which reduce the MTT reagent to formazan which can be measured spectrophotometrically. At the end of the H/R period, 5 mg/ml MTT in PBS was added to each well of the 96 well plates and incubated at 37° C. for 4 hours, the medium was replaced with 150 μl of DMSO and the absorbance measured at 490 nm. Cell viability was expressed as percentage of the equivalent normoxic control, all results are expressed as mean+/−SEM of six wells.
Example 1A: Dose response study: To examine the effect of PSTI on H/R-induced cell injury in vitro, cells were set up in 96 well plates and pre-incubated in SFM containing glucose, with or without 5, 10 or 15 μg/ml PSTI for 1 hour (i.e. PSTI pre-treatment). These concentrations of PSTI were chosen based on previous studies examining cell migration (Marchbank et al., 2007, Am J Pathol 171(5):1462-73). The medium was replaced with SFM without glucose and placed in the hypoxia incubator for 4 hours. At the end of the hypoxia period, medium was replaced with SFM containing glucose for 24 hours at normoxia for the reperfusion period.
Example 1B: Efficacy of PSTI given pre-, during- or post-hypoxic period. The potential benefits of giving PSTI prior to, during or following the hypoxic period were compared. Cells were either pre-treated with 10 μg/ml PSTI for the 1 hour before hypoxia (Pre), treated with 10 μg/ml PSTI during hypoxia (During) or treated with 10 μg/ml PSTI during the reperfusion stage (Post). Cell Viability (MTT assay) and cell damage (LDH assay) were assessed. Cells were pre-treated with 10 μg/ml PSTI for the 1 hour before hypoxia (Pre), at the time of the start of hypoxic period (During), or added at the start of the reperfusion stage (Post). Cell Viability (MTT assay) and cell damage (LDH assay) were assessed.

RIE1 cells = assay: Apoptotic and protective pathways after H/R in RIE1 cells; type: cell-based, rat; conditions: RIE1, Hyp 1 h/Rep 24 h + PSTI, mean +/− SEM
Description: as §1

[2] = test system: NSAID-induced gastric injury; conditions: rats, PSTI administration; cited from earlier work
50% SI (clamped region) = assay: Gut ischemia-reperfusion (I/R) model, clamped 50% SI site
[3] = test system: polarised Caco-2 monolayers; assay: Transepithelial electrical resistance (TEER) after H/R; type: cell-based, human
Description: as §1
The effect of […] PSTI pre-treatment on transepithelial permeability induced by 1 hour of hypoxia followed by 24 hours of normoxia was examined using Caco-2, human polarizing colonic adenocarcinoma cells utilizing two different previously published methods according to Davison et al., 2016, Am J Nutr 2016; 104:526-536. One method determined change in transepithelial electrical resistance (TEER) and the other method analyzed the passage of horseradish peroxidase (HRP) across the epithelial layer. HRP (type II) is a non-digestible macromolecular protein (MW=44 kD) and has previously been used as a tracer in evaluation of epithelial permeability. Each monolayer had TEER and HRP permeability assessed at baseline, at the end of 1 h incubation in an hypoxic (ischemic) chamber and at the end of a 24 h reoxygenation (reperfusion) period. Measurements were taken in triplicate from 4 wells per treatment. Results are expressed as mean+/−SEM.

AGS cells [4] = assay: Apoptotic and protective pathways after H/R in AGS cells; type: cell-based, human; conditions: Hyp 1 h/Rep 24 h + PSTI, mean +/− SEM
Description: as §1

bladder cancer = conditions: cited from earlier work
[5] = IR + PSTI 20 μg/kg ip, mean ± SEM
[6] = PSTI 20 μg/kg ip, vs I/R without PSTI
[7] = 50% SI clamped, PSTI 20 μg/kg ip, vs I/R without PSTI

pancreatic secretory trypsin inhibitor (DSLGREAKCYNELNGCTKIYDPVCGTDGNTYPNECVLCFENRKRQTSILIQKSGPC; listed as Homo sapiens) [PSTI]
Caspase 3 (lung tissue; IR + PSTI 20 μg/kg ip 1 h before clamping, mean ± SEM): 0.092 ± 0.022 Change in absorbance
Baxα (lung tissue; [5]): 3.74 ± 0.21 pg/μg total protein
Bcl2 (lung tissue; [5]): 45.66 ± 3.79 pg/μg total protein
Caspase 9 (lung tissue; [5]): 0.063 ± 0.004 Change in absorbance
Claudin 1 (lung tissue; [5]): 9.63 ± 0.40 pg/μg total protein
ZO1 (lung tissue; [5]): 8.15 ± 0.80 pg/μg total protein
histological damage of lung (lung tissue; PSTI 20 μg/kg ip 1 h before clamping, vs I/R without PSTI): markedly truncated these effects; also recorded: protective effects; also recorded: markedly truncated the adverse effects; also recorded: significantly reduced histological scoring of lung damage
MDA levels (lung tissue; [6]): this increase was truncated; also recorded: significantly reduced MDA levels
MPO levels (neutrophil infiltration) (lung tissue; [6]): reduced neutrophil infiltration of the lungs; also recorded: significantly reducing these changes; also recorded: significantly reduced MPO levels
cell viability in the MTT assay (AGS cells [1]; AGS, PSTI 10 μg/ml 1 h before hypoxia (Pre), % of normoxic control, H/R without PSTI 52±2%): 78±2%
cell viability in the MTT assay (AGS cells [1]; AGS, PSTI 10 μg/ml during hypoxia period): 66±3%
cell viability in the MTT assay (AGS cells [1]; AGS, PSTI 10 μg/ml during the post-hypoxia period): 49±1%
improvement of survival after H/R (AGS cells [1]; AGS, RIE1 and Caco-2 cells, hypoxia/reperfusion 4 h+24 h, PSTI 10 μg/ml prior or during hypoxic period, p<0.01): 50%
optimum concentration for reducing cell death (MTT and LDH assays) (AGS cells [1]; PSTI 5, 10 or 15 μg/ml given 1 h prior to H/R): 10 µg/mL
effect on cell viability / cell death after H/R vs serum free medium (AGS cells [1]; PSTI added before (or during) H/R): reduced hypoxia-reoxygenation-induced cell death; also recorded: significantly increased % cell viability
cell viability of cells not exposed to H/R (AGS cells [1]; normoxia, PSTI 10 microgram per ml): no change in viability or LDH; also recorded: no change in viability
Baxα (RIE1 cells): 97.6 +/− 0.01 ** $ % normoxic
Bcl2 (RIE1 cells): 49.3 +/− 1.91 ** $$ % normoxic
Caspase 3 (RIE1 cells): 112.3 +/− 2.70 * % normoxic
Caspase 9 (RIE1 cells): 120.6 +/− 17.02 * $ % normoxic
Claudin 1 (RIE1 cells): 75.6 +/− 2.1 ** $$ % normoxic
HIF1α (RIE1 cells): 144.1 +/− 0.17 ** $$ % normoxic
ICAM1 (RIE1 cells): 115.4 +/− 1.09 ** % normoxic
VEGF (RIE1 cells): 121.8 +/− 2.53 ** $$ % normoxic
ZO1 (RIE1 cells): 83.6 +/− 0.69 * $ % normoxic
hSP70 (RIE1 cells): 122.9 +/− 0.85 ** % normoxic
NSAID-induced gastric injury [2]: reduces NSAID-induced gastric injury
ICAM1 levels (50% SI (clamped region); 50% SI clamped (gut), PSTI 20 μg/kg ip, vs I/R without PSTI): did not affect increased ICAM1; also recorded: no effect on these results; also recorded: did not affect ICAM1 levels
histological damage of small intestine (50% SI (clamped region); 50% SI clamped, PSTI 20 μg/kg ip 1 h before clamping, vs I/R without PSTI): much less extensive damage; also recorded: protective effects; also recorded: significantly reduced histological scoring
Baxα levels (50% SI (clamped region); [7]): truncated the increase; also recorded: significantly decreased the damaging pro-apoptotic Baxα activity
Bcl2 levels (50% SI (clamped region); [7]): maintained levels; also recorded: significantly increased the protective anti-apoptotic Bcl2 activity
Caspase 3 levels (50% SI (clamped region); [7]): virtually eliminated; also recorded: significantly decreased Caspase 3 activity
Caspase 9 levels (50% SI (clamped region); [7]): virtually eliminated; also recorded: significantly decreased Caspase 9 activity
Claudin1 levels (50% SI (clamped region); [7]): virtually completely prevented; also recorded: significantly increased the protective Claudin1
HIF1α levels (50% SI (clamped region); [7]): further increasing HIF1α and VEGF; also recorded: significantly increased the protective HIF1α
MDA levels (50% SI (clamped region); [7]): this increase was truncated; also recorded: significantly reduced MDA levels
MPO levels (50% SI (clamped region); [7]): significantly reducing these changes; also recorded: significantly reduced MPO levels
VEGF levels (50% SI (clamped region); [7]): further increasing HIF1α and VEGF; also recorded: significantly increased the protective VEGF
ZO1 levels (50% SI (clamped region); [7]): virtually completely prevented; also recorded: significantly increased the protective ZO1
hSP70 levels (50% SI (clamped region); [7]): Additional increases in hSP70 expression; also recorded: significantly increased the protective hSP70
reduction of all injury markers (50% SI (clamped region); gut, lung, kidney (necrosis, MDA, MPO), PSTI 20 μg/kg, p<0.01): 50-80%
histological and biochemical markers of injury in gut, lung and kidney (50% SI (clamped region); pre-treatment with PSTI): significantly reduced histological and biochemical markers of injury
reduction of the fall in TEER caused by H/R ([3]; Caco-2, 1 h hypoxia + 24 h normoxia, PSTI pre-treatment): about 50%
TEER under normoxic conditions ([3]; Caco-2, normoxia): no effect on TEER or HRP permeation; also recorded: no effect on transepithelial resistance (TEER)
H/R-induced change in TEER permeability, medium alone vs PSTI ([3]; PSTI added to the medium prior to I/R): significantly greater increases in permeability compared to those that had PSTI added
truncation of the damaging effect of hypoxia-normoxia on epithelial integrity ([3]; TEER and HRP permeation, polarized monolayers): about 65%
Baxα (AGS cells [4]): 110.9 +/− 2.79 * $ % normoxic
Bcl2 (AGS cells [4]): 49.3 +/− 1.91 ** $$ % normoxic
Caspase 3 (AGS cells [4]): 228.2 +/− 18.72 * $ % normoxic
Caspase 9 (AGS cells [4]): 119.8 +/− 13.25 * $ % normoxic
Claudin 1 (AGS cells [4]): 77.3 +/− 3.63 ** $$ % normoxic
HIF1α (AGS cells [4]): 145.2 +/− 0.66 ** $$ % normoxic
ICAM1 (AGS cells [4]): 113.6 +/− 0.12 **^ % normoxic
VEGF (AGS cells [4]): 125.82 +/− 2.0 ** $$ % normoxic
ZO1 (AGS cells [4]): 82.1 +/− 0.98 ** $ % normoxic
hSP70 (AGS cells [4]): 132.9 +/− 1.05 ** $ % normoxic
migration and invasion (bladder cancer): causes autocrine-mediated migration and invasion in bladder cancer
phosphorylation of signalling proteins (bladder cancer): phosphorylates the EGF receptor, Akt2 and Akt3, and ERK1 and ERK2
